Experimental data as given in paper PMC4467156, “A new chemical inhibitor of angiogenesis and tumorigenesis that targets the VEGF signaling pathway upstream of Ras” (Oncotarget, 2015).

Experiments:
FGFR2 = FGFR2 (Homo sapiens, UniProt P21802); assay: In vitro kinase assay FGFR2; type: biochemical; settings: concentrations up to 50 μM
Method: (§1) We first wondered whether COB223 required to be internalized to exert its biological effect. For this, we synthesized a covalent complex between BSA and COB223 and purified it. […] In vitro kinase assays were performed with a panel of purified protein-kinases involved in mitogenic signaling, including VEGFR2, FGFR1, FGFR2, PDGFRß, Met, Raf, MEK1, ERK1, ERK2, PKCα, PKCβI, PKCβII, PKCζ as indicated in Table 2. […] We then analyzed the effect of COB223 on VEGF-induced phosphorylations of VEGFR2, MEK and ERK1/2 (Figure 9). […] (Figure 9A, 9B). […] It was also specific of the p42/p44 MAP kinase pathway as activation of p38 MAP kinase phosphorylation in HUVEC cells by VEGF or serum was unaffected by COB223 (data not shown). The activation of src phosphorylation by VEGF in HUVECs was also unaffected by COB223 (data not shown).

[1] = tested on: neovascular response to FGF-2; assay: Mouse sponge angiogenesis assay; type: in vivo; settings: Balb/c mice, COB223 100 μM injected into sponge, day 7
Method: Disc Cellspon cellulose sponges (thickness 2 mm, diameter 10 mm, Cellomeda; Turku, Finland) were implanted under the skin of Balb-c mice under general anesthesia. Mice were divided in three groups receiving either DMSO, FGF-2, or FGF-2 and COB223 (groups of respectively 6, 7 and 8 mice). […] DMSO, FGF-2 and/or COB223 (50 μL) were injected again into the sponges through the skin on day 1 and 2. A third injection of COB223 alone was performed on day 4. On day 7, the vascularization of the sponges was imaged by non-invasive fluorescence imaging after i.p. injection of RAFT-(cRGD)4 (Angiostamp^TM, Fluoptics, Grenoble, France) as described in [9]. The mice were then anesthetized and sacrificed by cervical dislocation on day 7 and the sponges were rapidly excised and photographed. Each sponge was then homogenized in 1 mL RIPA lysis buffer and the supernatants were used for quantification. The extent of vascularization of the sponge implants was assessed by measuring the amount of hemoglobin using the Drabkin's reagent (Sigma).

HUVEC cells = assay: Cell viability WST-1, HUVEC; type: cell-based, human; settings: confluent HUVEC, 24 h at 37°C
Method: Once they had reached confluency, cells were kept for 24 hours in medium supplemented with 0.5% FCS (LLC/2 and 3T3 cells) or 2.5% FCS (HUVEC and HMVEC-d cells), in the presence of COB223 at different concentrations. WST-1 assay (Roche Diagnostic, Meylan, France) was then performed according to the manufacturer's instructions.

VEGFR2 (KDR) = VEGFR2 (KDR) (Homo sapiens, UniProt P35968); assay: In vitro kinase assay VEGFR2; type: biochemical; settings: concentrations up to 50 μM
VEGFR2 (KDR), sequence (P35968 20-1356, species assumed): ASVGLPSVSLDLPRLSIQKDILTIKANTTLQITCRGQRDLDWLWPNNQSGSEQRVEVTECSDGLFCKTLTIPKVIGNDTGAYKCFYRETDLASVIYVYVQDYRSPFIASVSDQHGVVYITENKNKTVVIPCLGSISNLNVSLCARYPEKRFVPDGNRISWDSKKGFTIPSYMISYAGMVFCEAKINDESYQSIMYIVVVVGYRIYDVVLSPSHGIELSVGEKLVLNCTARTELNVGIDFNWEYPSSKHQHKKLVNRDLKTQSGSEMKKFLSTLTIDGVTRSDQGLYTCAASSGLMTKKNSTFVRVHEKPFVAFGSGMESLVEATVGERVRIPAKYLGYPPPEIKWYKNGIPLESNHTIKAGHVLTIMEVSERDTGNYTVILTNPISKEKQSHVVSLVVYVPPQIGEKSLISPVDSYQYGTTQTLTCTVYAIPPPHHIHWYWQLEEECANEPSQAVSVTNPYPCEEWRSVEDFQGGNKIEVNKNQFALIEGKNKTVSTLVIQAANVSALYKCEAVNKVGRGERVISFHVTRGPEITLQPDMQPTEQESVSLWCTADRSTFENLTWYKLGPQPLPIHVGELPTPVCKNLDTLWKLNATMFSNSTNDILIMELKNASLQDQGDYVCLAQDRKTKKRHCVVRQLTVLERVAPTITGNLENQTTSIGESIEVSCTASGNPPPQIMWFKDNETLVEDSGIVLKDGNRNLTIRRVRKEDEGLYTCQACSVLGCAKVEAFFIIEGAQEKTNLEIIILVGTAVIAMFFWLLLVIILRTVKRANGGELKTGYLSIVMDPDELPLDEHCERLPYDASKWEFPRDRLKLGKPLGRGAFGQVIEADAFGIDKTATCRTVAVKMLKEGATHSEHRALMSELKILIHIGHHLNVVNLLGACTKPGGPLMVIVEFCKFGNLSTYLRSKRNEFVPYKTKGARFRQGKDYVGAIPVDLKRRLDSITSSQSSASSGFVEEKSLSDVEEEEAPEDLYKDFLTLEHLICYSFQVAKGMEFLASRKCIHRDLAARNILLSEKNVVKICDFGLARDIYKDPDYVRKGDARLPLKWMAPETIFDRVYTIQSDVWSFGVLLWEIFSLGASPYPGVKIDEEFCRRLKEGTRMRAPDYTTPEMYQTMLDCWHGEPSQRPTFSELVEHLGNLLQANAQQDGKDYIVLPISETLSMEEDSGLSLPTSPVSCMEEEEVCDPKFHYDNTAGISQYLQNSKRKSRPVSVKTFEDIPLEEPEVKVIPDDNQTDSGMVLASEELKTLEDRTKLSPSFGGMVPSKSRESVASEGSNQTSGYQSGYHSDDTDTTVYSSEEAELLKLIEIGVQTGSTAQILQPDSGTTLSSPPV
Method: as §1

Met = Met (Homo sapiens, UniProt P08581); assay: In vitro kinase assay Met; type: biochemical; settings: concentrations up to 50 μM
Met, sequence (P08581 25-1390): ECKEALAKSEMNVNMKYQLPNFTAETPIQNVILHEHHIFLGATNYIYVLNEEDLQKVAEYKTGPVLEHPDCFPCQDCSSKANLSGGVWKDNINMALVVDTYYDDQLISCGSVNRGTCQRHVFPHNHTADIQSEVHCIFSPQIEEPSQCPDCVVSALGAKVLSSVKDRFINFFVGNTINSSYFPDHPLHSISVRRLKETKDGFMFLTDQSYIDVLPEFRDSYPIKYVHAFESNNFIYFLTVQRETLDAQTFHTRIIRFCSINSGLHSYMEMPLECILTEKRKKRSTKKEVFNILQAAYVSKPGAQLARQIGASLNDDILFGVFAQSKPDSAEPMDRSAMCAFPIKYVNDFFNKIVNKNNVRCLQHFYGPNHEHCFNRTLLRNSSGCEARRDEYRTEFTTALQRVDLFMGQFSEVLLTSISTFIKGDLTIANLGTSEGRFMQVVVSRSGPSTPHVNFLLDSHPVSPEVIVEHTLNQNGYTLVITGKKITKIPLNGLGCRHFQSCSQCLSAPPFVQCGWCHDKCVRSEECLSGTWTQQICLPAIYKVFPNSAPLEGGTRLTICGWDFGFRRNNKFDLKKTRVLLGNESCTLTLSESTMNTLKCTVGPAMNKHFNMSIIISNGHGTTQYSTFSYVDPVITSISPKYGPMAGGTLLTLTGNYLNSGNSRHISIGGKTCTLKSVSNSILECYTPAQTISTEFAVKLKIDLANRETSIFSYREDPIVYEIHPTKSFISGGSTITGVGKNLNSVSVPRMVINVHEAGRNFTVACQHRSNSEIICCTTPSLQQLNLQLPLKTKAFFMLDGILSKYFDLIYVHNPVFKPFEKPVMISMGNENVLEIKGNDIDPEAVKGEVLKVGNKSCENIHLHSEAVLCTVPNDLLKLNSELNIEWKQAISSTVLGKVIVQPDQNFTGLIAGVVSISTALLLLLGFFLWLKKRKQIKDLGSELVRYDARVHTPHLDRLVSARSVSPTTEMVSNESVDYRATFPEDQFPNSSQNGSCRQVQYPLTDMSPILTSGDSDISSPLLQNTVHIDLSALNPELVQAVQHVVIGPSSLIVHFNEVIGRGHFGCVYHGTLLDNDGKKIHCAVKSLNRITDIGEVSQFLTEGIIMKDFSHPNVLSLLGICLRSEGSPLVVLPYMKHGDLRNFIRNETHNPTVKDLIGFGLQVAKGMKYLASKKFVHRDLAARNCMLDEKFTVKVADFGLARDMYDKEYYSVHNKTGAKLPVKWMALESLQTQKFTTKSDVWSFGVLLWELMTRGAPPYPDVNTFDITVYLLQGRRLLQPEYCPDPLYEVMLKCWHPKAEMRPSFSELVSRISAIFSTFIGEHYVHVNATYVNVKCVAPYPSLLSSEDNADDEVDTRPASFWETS
Method: as §1

PKCα = PKCα (Homo sapiens, UniProt P17252); assay: In vitro kinase assay PKCα; type: biochemical; settings: concentrations up to 50 μM
Method: as §1

[2] = Tolerance in treated LLC/2 tumor-bearing mice; type: in vivo, mouse; settings: two week-long treatment with up to 16 mg/kg i.p.
Method: We chose this model because of its rapid growth in syngenic mice and its strong dependence on angiogenesis. LLC/2 cells (10^6 in 50 μL medium) were subcutaneously injected into the right flank of […] mice. Seven days after tumor inoculation, mice were given an intraperitoneal (i.p.) injection of either solvent (1.7% DMSO) or COB223 every other day. Tumor size was measured with calipers, and the volume was calculated according to the formula (L*w^2)/2 where L and […] stand for length and width respectively. All mice were killed 21 days after tumor grafting.

ERK phosphorylation = ERK phosphorylation in CCL-39 fibroblasts with estrogen-responsive active Raf; type: cell-based; settings: estradiol 3 h, 25 μM COB223 15 or 30 min
Method: Figure 11 Effect of COB223 on mitogenic or oncogenic activation of the Ras /MEK/ERK signaling pathway (A) Serum-starved HUVEC cells were incubated for 15 min in the presence of 10 ng/mL VEGF-A and in the absence or the presence of 25 μM COB223. The phosphorylations of PLCγ on tyrosine 783, of Raf on serine 338 or on serine 259 and of ERK1/2 were then analyzed by Western blot analysis of the cell lysates as described in Material and Methods. Western blots for total PLCγ, Raf and ERK1/2 were used as loading controls. (B) MCF10A cells overexpressing an oncogenic version of Ras (MCF10A-RasG12V) were treated for the indicated periods of time by 25 μM COB223. Total ERK1/2 and phospho-ERK1/2 were then visualized by Western blotting of the cell extracts. Non-treated regular MCF10A cells were analyzed as a control (first lane). (C) CCL-39 fibroblasts expressing a constitutively active Raf in an estrogen-responsive manner were stimulated for 3 h with estradiol and treated for 15 or 30 min with 25 μM COB223. Total ERK1/2 and phospho-ERK1/2 were then visualized by Western blotting of the cell extracts. Non-treated cells were analyzed as a control (left lanes).

FGFR2, sequence (P21802 22-821, species assumed): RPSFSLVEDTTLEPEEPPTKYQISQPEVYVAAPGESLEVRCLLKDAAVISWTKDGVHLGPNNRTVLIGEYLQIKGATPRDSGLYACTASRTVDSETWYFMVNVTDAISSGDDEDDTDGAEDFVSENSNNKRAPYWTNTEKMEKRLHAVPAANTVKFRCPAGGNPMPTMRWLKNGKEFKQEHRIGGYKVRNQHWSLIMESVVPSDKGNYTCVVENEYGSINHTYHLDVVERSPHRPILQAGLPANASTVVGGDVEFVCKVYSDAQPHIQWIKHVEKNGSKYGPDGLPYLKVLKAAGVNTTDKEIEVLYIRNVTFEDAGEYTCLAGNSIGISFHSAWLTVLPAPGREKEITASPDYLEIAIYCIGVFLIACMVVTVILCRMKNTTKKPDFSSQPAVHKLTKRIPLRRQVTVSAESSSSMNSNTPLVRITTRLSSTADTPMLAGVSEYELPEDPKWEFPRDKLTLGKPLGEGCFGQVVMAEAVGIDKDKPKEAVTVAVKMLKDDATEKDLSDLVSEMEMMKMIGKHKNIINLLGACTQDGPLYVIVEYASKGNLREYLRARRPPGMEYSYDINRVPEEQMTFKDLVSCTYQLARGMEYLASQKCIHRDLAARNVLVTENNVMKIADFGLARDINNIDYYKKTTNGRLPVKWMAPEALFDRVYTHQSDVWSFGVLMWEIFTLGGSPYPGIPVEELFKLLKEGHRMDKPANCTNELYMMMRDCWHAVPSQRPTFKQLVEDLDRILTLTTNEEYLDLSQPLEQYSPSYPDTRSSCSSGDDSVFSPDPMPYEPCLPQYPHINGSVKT

For CN(C)c1cccc2c(S(=O)(=O)NCCCN3CCN(CCCNC(=O)OC(C)(C)C)CC3)cccc12 [COB223, tert-Butyl 3-(4-(3-(5-(dimethylamino)naphthalene-1-sulfonamido)propyl)piperazin-1-yl) propylcarbamate], the “kinase inhibition” value (FGFR2) was “None of them was inhibited”, the “neovascular response to FGF-2 (hemoglobin content and fluorescence imaging)” value [1] was “strong inhibition” and the cytotoxic concentrations (HUVEC cells) was > 50 µM. The “kinase inhibition” value (VEGFR2 (KDR)) was “None of them was inhibited”, the “kinase inhibition” value (Met) was “None of them was inhibited” and the “kinase inhibition” value (PKCα) was “None of them was inhibited”. The “tolerance, adverse effects” value [2] was “no adverse effect was observed” and the “ERK phosphorylation induced by estrogen” value (ERK phosphorylation) was “did not inhibit”.
